Assay results published in patent US8450350B2, “Triazoles as inhibitors of fatty acid synthase” (Infinity Pharmaceuticals, Inc., priority 2010, dated 2013).

molecular target: T1, human FASN (Homo sapiens, UniProt P49327); assay: FASN NADPH consumption assay; format: biochemical; conditions: IC50 class, FASN NADPH Consumption Assay (symbols without asterisk); human FASN purified from SKBR3 cells
T1 construct: purified from SKBR3 cells using procedures modified from those in Jayakumar et al; endogenous in cells; host or cells: SKBR3 cells (ATCC); endogenous FASN purified in house by ammonium sulfate precipitation and mono Q chromatography
T1 sequence (P49327 whole entry): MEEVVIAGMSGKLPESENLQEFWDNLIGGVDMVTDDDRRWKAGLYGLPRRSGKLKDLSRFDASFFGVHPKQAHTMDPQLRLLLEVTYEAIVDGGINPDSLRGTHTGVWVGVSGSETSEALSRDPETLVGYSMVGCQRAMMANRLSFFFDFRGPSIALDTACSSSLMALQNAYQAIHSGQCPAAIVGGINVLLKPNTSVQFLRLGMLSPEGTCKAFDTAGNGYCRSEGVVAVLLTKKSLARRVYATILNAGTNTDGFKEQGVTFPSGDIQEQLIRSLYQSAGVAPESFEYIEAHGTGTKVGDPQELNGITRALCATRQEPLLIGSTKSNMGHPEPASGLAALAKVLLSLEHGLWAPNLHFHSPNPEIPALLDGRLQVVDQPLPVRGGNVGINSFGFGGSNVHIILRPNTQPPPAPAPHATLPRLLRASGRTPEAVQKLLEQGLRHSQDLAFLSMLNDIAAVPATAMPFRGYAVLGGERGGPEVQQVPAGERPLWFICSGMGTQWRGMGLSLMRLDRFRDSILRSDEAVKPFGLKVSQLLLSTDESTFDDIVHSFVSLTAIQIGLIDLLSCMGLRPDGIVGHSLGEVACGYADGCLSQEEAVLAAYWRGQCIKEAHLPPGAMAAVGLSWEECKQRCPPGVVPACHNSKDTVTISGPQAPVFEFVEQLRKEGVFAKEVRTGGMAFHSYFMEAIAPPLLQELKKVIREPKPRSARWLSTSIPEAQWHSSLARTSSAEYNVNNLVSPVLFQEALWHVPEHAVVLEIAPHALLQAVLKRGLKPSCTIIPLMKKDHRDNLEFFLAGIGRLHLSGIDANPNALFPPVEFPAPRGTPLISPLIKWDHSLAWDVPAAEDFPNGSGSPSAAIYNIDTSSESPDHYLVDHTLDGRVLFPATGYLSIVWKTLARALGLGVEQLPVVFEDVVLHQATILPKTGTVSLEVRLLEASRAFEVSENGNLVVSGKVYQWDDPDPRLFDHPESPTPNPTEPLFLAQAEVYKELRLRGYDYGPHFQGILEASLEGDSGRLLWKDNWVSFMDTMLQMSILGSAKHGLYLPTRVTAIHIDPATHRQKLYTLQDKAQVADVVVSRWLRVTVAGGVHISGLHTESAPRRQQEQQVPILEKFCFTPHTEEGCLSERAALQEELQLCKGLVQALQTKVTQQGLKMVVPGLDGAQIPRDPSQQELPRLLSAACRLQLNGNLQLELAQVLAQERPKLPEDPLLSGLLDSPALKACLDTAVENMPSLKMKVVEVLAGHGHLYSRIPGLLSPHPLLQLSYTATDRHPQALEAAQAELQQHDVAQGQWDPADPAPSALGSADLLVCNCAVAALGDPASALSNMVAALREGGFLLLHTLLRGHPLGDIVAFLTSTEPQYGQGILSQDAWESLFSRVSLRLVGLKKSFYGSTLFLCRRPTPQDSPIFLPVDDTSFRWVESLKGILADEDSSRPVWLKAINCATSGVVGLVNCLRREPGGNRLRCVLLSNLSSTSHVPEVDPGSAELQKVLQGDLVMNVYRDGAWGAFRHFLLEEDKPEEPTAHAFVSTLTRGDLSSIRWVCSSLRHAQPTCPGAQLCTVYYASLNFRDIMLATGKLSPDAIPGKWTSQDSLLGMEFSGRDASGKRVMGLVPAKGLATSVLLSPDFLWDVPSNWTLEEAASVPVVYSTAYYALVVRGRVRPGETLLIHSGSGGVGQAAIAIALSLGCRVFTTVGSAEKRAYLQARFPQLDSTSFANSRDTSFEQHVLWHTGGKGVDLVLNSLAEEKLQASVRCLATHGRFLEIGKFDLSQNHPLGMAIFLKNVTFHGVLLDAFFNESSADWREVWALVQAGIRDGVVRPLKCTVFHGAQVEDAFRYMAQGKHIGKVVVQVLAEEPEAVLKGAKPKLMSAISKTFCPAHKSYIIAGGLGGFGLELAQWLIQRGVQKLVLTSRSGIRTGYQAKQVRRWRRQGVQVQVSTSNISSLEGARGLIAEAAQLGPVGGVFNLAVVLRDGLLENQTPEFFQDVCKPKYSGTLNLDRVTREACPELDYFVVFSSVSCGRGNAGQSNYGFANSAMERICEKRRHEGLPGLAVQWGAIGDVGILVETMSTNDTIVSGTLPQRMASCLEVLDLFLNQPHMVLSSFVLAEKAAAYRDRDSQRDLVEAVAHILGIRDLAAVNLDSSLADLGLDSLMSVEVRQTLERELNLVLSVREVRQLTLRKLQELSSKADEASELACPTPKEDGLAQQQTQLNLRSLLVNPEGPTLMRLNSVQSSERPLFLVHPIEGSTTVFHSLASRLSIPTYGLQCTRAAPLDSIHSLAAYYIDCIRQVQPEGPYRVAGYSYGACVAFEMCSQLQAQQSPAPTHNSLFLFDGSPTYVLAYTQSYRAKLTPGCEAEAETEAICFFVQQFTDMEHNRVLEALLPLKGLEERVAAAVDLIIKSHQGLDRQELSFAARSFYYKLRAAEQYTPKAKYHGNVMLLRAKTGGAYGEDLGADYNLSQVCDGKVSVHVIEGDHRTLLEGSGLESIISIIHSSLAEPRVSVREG
Protocol: Human FASN protein (SEQ ID NO 1) was purified from SKBR3 cells using procedures modified from those in Jayakumar et al., PNAS (1995) 92:8695-8699. SKBR3 cells were obtained from ATCC and grown in DMEM high glucose medium supplemented with 10% FBS, 1 μg/mL bovine pancreas insulin, 100 U/mL penicillin and 100 μg/mL streptomycin. The confluent cells were trypsinized and washed three times with PBS buffer before frozen in liquid N2 and stored at −80° C. Frozen cells were thawed on ice and re-suspended in lysis buffer (25 mM Tris-HCl, pH 7.0, 15 mM NaCl, 1 mM EDTA, and 1 mM DTT) with protease inhibitors. The cells were lysed by sonication, and the cell debris was removed by centrifugation at 20,000 rpm for 30 min. To the supernatant, neutralized saturated ammonium sulfate solution was added to a final concentration of 35%. The solution was left on ice for 1 hr, and the precipitated proteins were harvested by centrifugation at 20,000 rpm for 30 min. The proteins were re-dissolved in lysis buffer without NaCl and loaded on a mono Q column. Bound proteins were eluted with a linear gradient of NaCl in lysis buffer. Each fraction was analyzed by SDS-PAGE and FASN NADPH consumption assay. The fractions containing FASN were pooled and concentrated to 2-3 mg/mL. Glycerol was added to 20%, and the protein was frozen in liquid N2 and stored at −80° C.
All chemicals were purchased from Sigma (St. Louis, Mo.). The procedures of NADPH consumption assay were similar to those described in Cox et al., PNAS (1983) 80:4233-4237. On a 96-well polypropylene microplate, dilution series (typical concentrations 60 nM-1.0 mM) of inhibitor compounds were prepared in DMSO, of which 4.0 μL each was transferred to a black polystyrene assay microplate and mixed with 36 μL FASN assay buffer (50 mM potassium phosphate, pH 7.0, 1.0 mM EDTA, 0.01% NP-40) plus 5.0 mM fresh DTT. FASN protein (40 μL 150 nM FASN) was added per well, and the microplate was incubated at 37° C. for 30 min. Enzyme activity measurement was initiated by addition of 20 μL 5× substrate mixture to final concentrations of 60 nM FASN, 2.4 nM-40 μM compound, 0.2 mM NADPH, 50 μM butyryl-CoA, 0.5 mM malonyl-CoA in 100 μL assay buffer plus 5.0 mM DTT and 4.0% DMSO. NADPH consumption was monitored kinetically by fluorescence (λEX=340 nm, λEm=460 nm) on an EnVision 2100 multilabel plate reader (Perkin Elmer, Waltham, Mass.). FASN enzyme activity (slope) in the presence of 4% DMSO was used as maximum control, whereas background (minimum control) was measured by omission of malonyl-CoA in the substrate mixture. Inhibition curves were fitted by a logistic function to yield IC50 values: […]

| Compound | IC50 |
| --- | --- |
| N#Cc1c(-c2c(Cl)cccc2Cl)nnn1C(=O)N1CCCC2CCCCC21 (stereo not shown) | 0.2 to 0.5 µM |
| CCN(C(=O)n1nnc(-c2c(Cl)cccc2Cl)c1C#N)c1ccccc1 | < 0.2 µM |
| CCN(C(=O)n1nnc2ncccc21)c1ccccc1 | 0.5 to 1 µM |
| CCN(C(=O)n1cc(-c2ccccc2Cl)nn1)c1ccccc1F | > 1 µM |
| CCN(C(=O)n1cc(-c2ccccc2Cl)nn1)c1ccccc1 | 0.5 to 1 µM |
| O=C(N1CCCC2CCCCC21)n1nnc2ncccc21 (stereo not shown) | > 1 µM |
| C[C@H]1[C@H](NC(=O)c2c(-c3ccccc3Oc3ccccc3)nnn2C(=O)N2CCCC3CCCCC32)C[C@H]2C[C@@H]1C2(C)C (stereo partly shown) | > 1 µM |
| CCN(C(=O)n1nnc(-c2c(F)cccc2Cl)c1C#N)c1ccccc1 | < 0.2 µM |
| C[C@@H]1[C@@H](NC(=O)c2ccccc2-c2nnn(C(=O)N3CCCC4CCCCC43)c2C#N)C[C@@H]2C[C@H]1C2(C)C (stereo partly shown) | 0.5 to 1 µM |
| C[C@@H](NC(=O)c1ccccc1-c1nnn(C(=O)N2CCCC3CCCCC32)c1C#N)c1ccccc1 (stereo partly shown) | 0.2 to 0.5 µM |
| CCN(C(=O)n1nncc1-c1ccccc1Cl)c1ccccc1 | > 1 µM |
| CCN(C(=O)n1nncc1-c1ccccc1Cl)c1ccccc1F | > 1 µM |
| CCN(C(=O)n1nnc2ccccc21)c1ccc(C(=O)O)cc1 | > 1 µM |
| CC(=O)N1CCC(N(Cc2ccccc2)C(=O)n2nnc(-c3ccccc3Oc3ccccc3)c2C#N)CC1 | > 1 µM |
| CCOC(=O)c1c(-c2ccccc2Oc2ccccc2)nnn1C(=O)N1CCCC2CCCCC21 (stereo not shown) [ethyl 1-(decahydroquinoline-1-carbonyl)-4-(2-phenoxyphenyl)-1H-1,2,3-triazole-5-carboxylate] | 0.5 to 1 µM |
| CCN(C(=O)n1nncc1-c1ccccc1)C1CCCCC1 | > 1 µM |

| Compound | IC50 |
| --- | --- |
| CCN(C(=O)n1nnc(C2CCCCC2)c1C#N)c1ccccc1 | 0.2 to 0.5 µM |
| CCOC(=O)c1c(-c2ccccc2Oc2ccccc2)nnn1C(=O)N(CC)c1ccccc1 | 0.5 to 1 µM |
| C[C@H](NC(=O)c1ccccc1-c1nnn(C(=O)N2CCCC3CCCCC32)c1C#N)c1ccccc1 (stereo partly shown) | < 0.2 µM |
| CCOC(=O)c1c(C2CC3C=CC2C3)nnn1C(=O)N1CCCC2CCCCC21 (stereo not shown) | > 1 µM |
| O=C(N1CCCC2CCCCC21)n1nnc2ccccc21 (stereo not shown) | > 1 µM |
| CCN(C(=O)n1nnc(-c2c(F)cccc2F)c1C#N)c1ccccc1 | < 0.2 µM |
| N#Cc1c(-c2c(F)cccc2F)nnn1C(=O)N1CCCC2CCCCC21 (stereo not shown) | 0.2 to 0.5 µM |
| CCN(C(=O)n1nnc2ccccc21)c1ccccc1F | 0.5 to 1 µM |
| CCN(C(=O)n1nnc(-c2c(F)cccc2Cl)c1C#N)c1ccccc1F | < 0.2 µM |
| COC(=O)C1CCc2ccccc2N1C(=O)n1nnc(-c2ccccc2Oc2ccccc2)c1C#N (stereo not shown) | 0.5 to 1 µM |
| CCN(C(=O)n1nnc(-c2ccccc2Oc2ccccc2)c1C#N)c1ccccc1 | < 0.2 µM |
| CC(C)(C)OC(=O)N1CCC(N(Cc2ccccc2)C(=O)n2nnc(-c3ccccc3Oc3ccccc3)c2C#N)CC1 | > 1 µM |
| N#Cc1c(-c2ccccc2CCc2ccccc2)nnn1C(=O)N1CCCC2CCCCC21 (stereo not shown) | < 0.2 µM |
| C[C@@H]1[C@@H](NC(=O)c2c(-c3ccccc3Oc3ccccc3)nnn2C(=O)N2CCCC3CCCCC32)C[C@@H]2C[C@H]1C2(C)C (stereo partly shown) | > 1 µM |
| C[C@H]1[C@H](NC(=O)c2ccccc2-c2nnn(C(=O)N3CCCC4CCCCC43)c2C#N)C[C@H]2C[C@@H]1C2(C)C (stereo partly shown) | 0.2 to 0.5 µM |
| CCN(C(=O)n1cc(-c2ccccc2)nn1)C1CCCCC1 | > 1 µM |

molecular target: T1, human FASN; assay: FASN Scintillation Proximity Flashplate assay; format: biochemical; conditions: IC50 class, FASN Scintillation Proximity Flashplate Assay (symbols with asterisk); human FASN purified from SKBR3 cells
Protocol: Human FASN protein (SEQ ID NO 1) was purified from SKBR3 cells using procedures modified from those in Jayakumar et al., PNAS (1995) 92:8695-8699. SKBR3 cells were obtained from ATCC and grown in DMEM high glucose medium supplemented with 10% FBS, 1 μg/mL bovine pancreas insulin, 100 U/mL penicillin and 100 μg/mL streptomycin. The confluent cells were trypsinized and washed three times with PBS buffer before frozen in liquid N2 and stored at −80° C. Frozen cells were thawed on ice and re-suspended in lysis buffer (25 mM Tris-HCl, pH 7.0, 15 mM NaCl, 1 mM EDTA, and 1 mM DTT) with protease inhibitors. The cells were lysed by sonication, and the cell debris was removed by centrifugation at 20,000 rpm for 30 min. […] Each fraction was analyzed by SDS-PAGE and FASN NADPH consumption assay. […]
Acetyl-coenzyme A, malonyl-coenzyme A, NADPH, bovine gamma globulin, and orlistat were purchased from Sigma (St. Louis, Mo.). […] The plates were read in a Wallac 1450 Microbeta Plus liquid scintillation counter (Perkin Elmer, Waltham, Mass.), and counts per minute (CPM) were collected over 2 min. Each inhibitor well CPM was compared to the maximum FASN enzyme activity (Max) CPM and the background (Min) CPM, as measured by omission of FASN enzyme in the background well. % Inhibition values were calculated, and curves were fitted by a four-parameter logistic function to yield IC50 values: […]

| Compound | IC50 |
| --- | --- |
| CCN(C(=O)n1nnc(-c2ccccc2CCc2ccccc2)c1C#N)c1ccccc1 | < 0.2 µM |
| CC(C)N(C(=O)n1nnc(-c2c(F)cccc2F)c1C#N)c1cccc(C(=O)O)c1 [3-(5-cyano-4-(2,6-difluorophenyl)-N-isopropyl-1H-1,2,3-triazole-1-carboxamido)benzoic acid] | < 0.2 µM |
